Where only a bound is given, the exact number is not on record here.

A short description of series [1]: Side effects / adverse events in the low-dose stannsoporfin infant study. Format: in vivo, human. The protocol:
(§1) Low-dose administration of stannsoporfin was tested in a group of infants in Hanoi, Vietnam and Michigan, United States. The known and unknown risks of the proposed study intervention and the potential for direct and indirect benefit were discussed with each subject's parents or guardians. Written informed consent was obtained from a parent or guardian of each subject before enrollment in the study. The study protocol was conducted under the guidelines of current Good Clinical Practice as promulgated by the United States Food and Drug Administration and international regulatory bodies. The study was reviewed and approved by the Institutional Review Board of the William Beaumont Hospital, Royal Oak, Mich., and the Vietnamese Ministry of Health and the Ethics Review Board of the National Hospital for Pediatrics of Hanoi.
All infants received phototherapy to treat hyperbilirubinemia; thus, the group designated as “placebo” were treated with phototherapy, as were the other groups. The placebo group had 18 babies total. […] The 0.75 mg/kg stannsoporfin group had 19 babies total. […] The 1.5 mg/kg stannsoporfin group had 18 babies total. […] Treatment refers to either placebo injection or stannsoporfin injection; as previously indicated, all babies received phototherapy. The placebo used was normal physiological saline. Stannsoporfin was administered via intramuscular injection in sodium phosphate buffer at a concentration of 20 mg/ml. A vial containing 1.5 ml was used, where a dose based on birthweight of the infant and whether a 0.75 mg/kg or 1.5 mg/kg dose was withdrawn. (For example, a 5 kg birthweight baby treated at a dose of 1.5 mg/kg would receive 7.5 mg of stannsoporfin; thus, a volume of 0.375 ml from the 20 mg/ml solution would be used to provide this dose.) In the majority of cases, the infants were between 4 and 7 days of age at the time of either stannsoporfin administration or exchange transfusion. […]

The subject of series [2] is infant hyperbilirubinemia. Put plainly: Low-dose administration of stannsoporfin in infants with hyperbilirubinemia (all receiving phototherapy): serum bilirubin and need for exchange transfusion. Format: in vivo, human. Conditions: for # transfused pts (babies total received exchange transfusions): intramuscular, before or after treatment. The protocol:
as §1
All infants received phototherapy to treat hyperbilirubinemia; thus, the group designated as “placebo” were treated with phototherapy, as were the other groups. The placebo group had 18 babies total. […] The 0.75 mg/kg stannsoporfin group had 19 babies total. […] The 1.5 mg/kg stannsoporfin group had 18 babies total. […] Treatment refers to either placebo injection or stannsoporfin injection; as previously indicated, all babies received phototherapy. The placebo used was normal physiological saline. Stannsoporfin was administered via intramuscular injection in sodium phosphate buffer at a concentration of 20 mg/ml. A vial containing 1.5 ml was used, where a dose based on birthweight of the infant and whether a 0.75 mg/kg or 1.5 mg/kg dose was withdrawn. (For example, a 5 kg birthweight baby treated at a dose of 1.5 mg/kg would receive 7.5 mg of stannsoporfin; thus, a volume of 0.375 ml from the 20 mg/ml solution would be used to provide this dose.) In the majority of cases, the infants were between 4 and 7 days of age at the time of either stannsoporfin administration or exchange transfusion. The results are shown in FIG. 1 and FIG. 2; infants receiving stannsoporfin injections who required exchange transfusions before or after treatment are not included in the data presented in FIG. 1 for any group, while babies in the stannsoporfin groups who required exchange transfusion are excluded from FIG. 2 and only babies in the placebo group that did receive exchange transfusion are included in FIG. 2.

In series [3] the test system is jaundiced infants. Conditions: single dose of 6 umol/kg birthweight (4.5 mg/kg birthweight); cited from earlier work.
Setting [4] is: 0.75 mg/kg group, 19 babies total.
Setting [5] is: 1.5 mg/kg group, 18 babies total.

As to “tin (IV) mesoporphyrin IX dichloride [stannsoporfin]”, in series [1] (all treatment groups), the “adverse events considered probably or definitely related to the study treatment” value is “None”. For the same substance, the “infants who experienced at least one adverse event” value in series [1] (each treatment group) is given as “Greater than 60%”. In series [1] (placebo, 0.75 mg/kg and 1.5 mg/kg groups), the “incidence, severity, seriousness, and causality of adverse events, differences among the three treatment groups” value was “no statistically significant differences”. Also, the “# transfused pts (babies total received exchange transfusions)” value in series [2] (0.75 mg/kg birthweight, N = 19, plus phototherapy) turned out to be 3; in series [2] (1.5 mg/kg birthweight, N = 18, plus phototherapy) it was 2. For the same substance, the “babies who did not receive an exchange transfusion” value in series [2] (setting [4]) amounted to 16. Moreover, the “babies who received an exchange transfusion after treatment” value in series [2] (setting [4]) amounted to 1; in series [2] (setting [5]), 2. In addition, the “% requiring transfusions” value is on record as 16% in series [2] (0.75 mg/kg, N = 19) and 11% in series [2] (1.5 mg/kg, N = 18). For the same substance, the “babies who did not receive exchange transfusion” value in series [2] (setting [5]) was found to be 16. The “significance value P versus placebo, serum bilirubin” value in series [2] (1.5 mg/kg, at 24 hours, FIG. 1) is less than 0.05; in series [2] (1.5 mg/kg, at 48 hours, FIG. 1), less than 0.001. In addition, the “decrease in serum bilirubin compared with the exchange transfusion (placebo injection) group” value in series [2] (1.5 mg/kg, FIG. 2) is listed as “greater than that for the exchange transfusion group at 3 of the 4 post-treatment data points”. The “reduction of serum bilirubin versus placebo (phototherapy only)” value in series [2] (both doses, 0.75 mg/kg and 1.5 mg/kg, babies who required exchange transfusions excluded, FIG. 1) is “greater reduction of serum bilirubin than the placebo group”. For the same substance, in series [2] (both stannsoporfin groups, 0.75 mg/kg and 1.5 mg/kg, babies without exchange transfusion, FIG. 2), the “percentage reduction in starting bilirubin levels” value was “substantial decrease in serum bilirubin”. Further, the “need for exchange transfusion” value in series [2] (low-dose stannsoporfin (0.75 and 1.5 mg/kg) versus control) was “significantly decreased the need for exchange transfusion”. Further, the “need for phototherapy in jaundiced infants” value in series [3] is listed as “could avoid the need for phototherapy”.

Values taken from patent US20080113955A1, “TREATMENT OF INFANT HYPERBIL[…] LOW DOSAGES OF STANNSOPORFIN” (priority 2006, published 2008).
